From paper PMC9501377, “New Diarylamine KV10.1 Inhibitors and Their Anticancer Potential” (Pharmaceutics, 2022) come the findings set out here.

Several values for one entry are separate records, joined by “and”; a condition that tells them apart may be missing. Equal entries are not always repeated.

One data set addresses T1, KV10.1 (Homo sapiens, UniProt O95259).
T1 construct: expressed in transfected cells; host or cells: Xenopus laevis oocytes (cRNA injection)
T1 sequence (O95259 1-989): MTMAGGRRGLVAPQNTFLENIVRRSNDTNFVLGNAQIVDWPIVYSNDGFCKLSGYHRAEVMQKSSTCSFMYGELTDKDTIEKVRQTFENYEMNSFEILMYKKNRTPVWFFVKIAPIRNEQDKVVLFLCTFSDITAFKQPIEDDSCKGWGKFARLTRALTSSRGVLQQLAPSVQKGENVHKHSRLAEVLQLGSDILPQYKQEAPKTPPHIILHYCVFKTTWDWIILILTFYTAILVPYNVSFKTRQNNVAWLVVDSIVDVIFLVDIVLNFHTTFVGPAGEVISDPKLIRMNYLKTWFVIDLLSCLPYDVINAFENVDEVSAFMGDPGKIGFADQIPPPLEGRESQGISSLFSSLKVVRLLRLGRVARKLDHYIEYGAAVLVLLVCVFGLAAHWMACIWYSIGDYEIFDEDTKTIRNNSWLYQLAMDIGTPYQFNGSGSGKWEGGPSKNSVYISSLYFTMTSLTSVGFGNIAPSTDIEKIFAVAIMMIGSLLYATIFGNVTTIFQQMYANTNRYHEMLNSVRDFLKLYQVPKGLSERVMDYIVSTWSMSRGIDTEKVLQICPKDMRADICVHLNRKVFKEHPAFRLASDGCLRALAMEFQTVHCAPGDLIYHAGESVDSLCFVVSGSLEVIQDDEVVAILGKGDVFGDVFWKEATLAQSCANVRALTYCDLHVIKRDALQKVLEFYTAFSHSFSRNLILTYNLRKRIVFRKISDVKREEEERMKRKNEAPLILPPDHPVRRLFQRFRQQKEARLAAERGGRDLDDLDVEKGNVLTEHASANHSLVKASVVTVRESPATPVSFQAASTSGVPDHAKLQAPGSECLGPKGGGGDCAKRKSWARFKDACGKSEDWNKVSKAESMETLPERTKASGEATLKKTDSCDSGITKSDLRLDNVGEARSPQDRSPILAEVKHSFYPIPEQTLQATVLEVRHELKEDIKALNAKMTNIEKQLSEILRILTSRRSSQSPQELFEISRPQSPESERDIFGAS
The data set can be described thus: Two-electrode voltage-clamp on Xenopus laevis oocytes expressing KV10.1. Conditions: voltage-clamped. Type of data set: cell-based. The text has this: (§1) Stage V–VI oocytes were isolated by partial ovariectomy from Xenopus laevis frogs (African clawed frog). Mature female frogs were purchased from CRB Xénopes (Rennes, France) and were housed in the Aquatic Facility (KU Leuven) in compliance with the regulations of the European Union (EU) concerning the welfare of laboratory animals as declared in Directive 2010/63/EU. The use of Xenopus laevis was approved by the Animal Ethics Committee of the KU Leuven (Project nr. P186/2019). After anesthetising the frogs by a 15 min submersion in 0.1% tricaine methanesulphonate (pH 7.0), the oocytes were collected. The isolated oocytes were then washed with a 1.5 mg/mL collagenase solution for 2 h to remove the follicle layer.
(§2) Ion channels (KV10.1 and hERG) were expressed in Xenopus laevis oocytes, by linearisation of the plasmids and subsequent in vitro transcription using a commercial T7 or SP6 mMESSAGE mMACHINE transcription kit (Ambion, Carlsbad, CA, USA). Defolliculated Xenopus oocytes were then injected with 20–50 nL of the cRNA at a concentration of 1 ng/nL using a micro-injector (Drummond Scientific1, Broomall, PA, USA). The oocytes were incubated in a solution containing (in mM): NaCl, 96; KCl, 2; CaCl2, 1.8; MgCl2, 2 and HEPES, 5 (pH 7.4), supplemented with 50 mg/L gentamycin sulphate and […]. After ex vivo translation, the ion channels are correctly inserted in the cell membrane of the oocytes.
(§3) Two-electrode voltage-clamp recordings were performed at room temperature (18–22 °C) using a Geneclamp 500 amplifier (Molecular Devices, San Jose, CA, USA) controlled by a pClamp data acquisition system (Axon Instruments1, Union City, CA, USA) and using an integrated digital TEVC amplifier controlled by HiClamp, an automated Voltage-Clamp Screening System (Multi Channel Systems MCS GmbH, Reutlingen, Germany). Whole-cell currents from oocytes were recorded 1–7 days after injection. The bath solution composition was ND96 (in mM): NaCl, 96; KCl, 2; CaCl2, 1.8; MgCl2, 2 and HEPES, 5 (pH 7.5). Voltage and current electrodes were filled with a 3 M solution of KCl in H2O. Resistances of both electrodes were kept between 0.5 and 1.5 MΩ. The elicited Kv10.1 and hERG currents were filtered at 0.5 kHz and sampled at 2 kHz using a four-pole low-pass Bessel filter. Leak subtraction was performed using a p/4 protocol. Starting from a holding potential of −90 mV, currents for Kv10.1 were evoked by 1 s depolarizing pulses to 0 mV and currents for hERG were evoked by 2.5 s depolarizing prepulses to +40 mV, followed by hyperpolarizing pulses to −120 mV for 2.5 s. The concentration dependency of all compounds was assessed by measuring the current inhibition in the presence of increasing compound concentrations. To this end, a stock solution of the compounds was prepared in 100% DMSO for the sake of solubility. From this stock solution, adequate dilutions with a maximum of 0.5% DMSO were made for testing. The data of the concentration–response curves were fitted with the Hill equation: y = 100/{1 + (IC50/[compound])^h}, where y is the amplitude of the compound- induced effect, IC50 is the compound concentration at half-maximal efficacy, (compound) is the compound concentration, and h is the Hill coefficient.
(§4) All electrophysiological data are presented as means ± SEM of n ≥ 3 independent experiments unless otherwise indicated. Oocyte data were analysed using pClamp Clampfit 10.4 (Molecular Devices, Downingtown, PA, USA) and OriginPro 9 (Originlab, Northampton, MA, USA) or GraphPad Prism 8 software (GraphPad Software, Inc., San Diego, CA, USA). Patch-clamp data analysis was performed using FitMaster (HEKA Electronics), IgorPro (Wavemetrics, Inc., Lake Oswego, OR, USA) and GraphPad Prism 9 (GraphPad Software, Inc., San Diego, CA, USA). The Dunnett test and one-way ANOVA were performed to calculate the significance of the induced inhibition compared to the control (p < 0.05).

A further data set concerns the target hERG (Homo sapiens, UniProt Q12809). In words: Two-electrode voltage-clamp on Xenopus laevis oocytes expressing hERG. Type of data set: cell-based. Details: expressed in transfected cells; host or cells: Xenopus laevis oocytes (cRNA injection). Conditions: voltage-clamped; for inhibition at 10 µM: human, Xenopus laevis oocytes expressing hERG, pH 7.5, 10 μM.
Description: as §1, §2, §3, §4

Chain of hERG (Q12809 whole entry): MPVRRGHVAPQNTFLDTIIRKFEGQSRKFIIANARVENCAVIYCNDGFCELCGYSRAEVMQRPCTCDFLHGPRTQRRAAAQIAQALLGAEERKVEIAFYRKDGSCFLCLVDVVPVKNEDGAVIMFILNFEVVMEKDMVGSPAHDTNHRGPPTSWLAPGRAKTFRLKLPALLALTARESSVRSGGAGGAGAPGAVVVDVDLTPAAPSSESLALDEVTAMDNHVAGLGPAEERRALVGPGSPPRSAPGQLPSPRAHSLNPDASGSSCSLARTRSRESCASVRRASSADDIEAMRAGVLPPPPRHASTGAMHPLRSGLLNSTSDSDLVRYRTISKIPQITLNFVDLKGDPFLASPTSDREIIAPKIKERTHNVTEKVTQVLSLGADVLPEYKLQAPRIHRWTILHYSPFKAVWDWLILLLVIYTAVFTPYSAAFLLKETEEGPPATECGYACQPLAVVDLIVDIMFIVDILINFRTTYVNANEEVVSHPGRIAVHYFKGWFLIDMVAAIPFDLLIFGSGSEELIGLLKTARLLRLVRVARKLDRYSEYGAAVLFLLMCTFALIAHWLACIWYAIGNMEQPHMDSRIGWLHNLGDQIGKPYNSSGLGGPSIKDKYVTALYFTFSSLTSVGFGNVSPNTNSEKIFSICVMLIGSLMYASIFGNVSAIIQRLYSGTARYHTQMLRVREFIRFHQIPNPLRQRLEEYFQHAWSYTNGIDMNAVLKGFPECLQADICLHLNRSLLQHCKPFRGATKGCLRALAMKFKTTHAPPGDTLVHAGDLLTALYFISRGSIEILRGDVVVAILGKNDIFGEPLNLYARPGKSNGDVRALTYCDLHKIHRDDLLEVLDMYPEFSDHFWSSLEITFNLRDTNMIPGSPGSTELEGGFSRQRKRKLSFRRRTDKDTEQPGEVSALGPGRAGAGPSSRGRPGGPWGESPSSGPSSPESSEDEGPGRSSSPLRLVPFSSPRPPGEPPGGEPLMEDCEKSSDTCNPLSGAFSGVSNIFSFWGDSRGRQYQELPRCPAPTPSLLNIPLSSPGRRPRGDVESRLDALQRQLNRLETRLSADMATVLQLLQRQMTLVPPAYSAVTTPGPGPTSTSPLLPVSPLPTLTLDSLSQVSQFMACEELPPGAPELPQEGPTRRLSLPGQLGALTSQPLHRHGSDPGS

On to “Methyl 2-((4-(2-hydroxy-3-morpholinopropoxy)phenyl)amino)benzoate [Compound 5e]”, for which the “% of Kv10.1 inhibition at 10 μM (Xenopus laevis oocytes)” value at KV10.1 (10 μM) is given as -2.17% ± 3.06. In addition, the “% of hERG inhibition at 10 μM (Xenopus laevis oocytes)” value at hERG (10 μM) is 37.32% ± 13.11.
One may read the inhibition as the drop in the measured response relative to a control, in per cent. One may read the IC50 as the point on the concentration scale where inhibition reaches its midpoint. High values mean a need for much substance, low ones inhibition by little substance. As for `CCN(CC)CCOc1ccc(Nc2ccc(C(F)(F)F)cc2[N+](=O)[O-])cc1` [Compound 17a, N-(4-(2-(Diethylamino)ethoxy)phenyl)-2-nitro-4-(trifluoromethyl)aniline], the inhibition at 10 µM against KV10.1 (10 μM) came to 63.5%; at hERG, 64.5%. In addition, the IC50 is 3580 nM and 3600 nM against KV10.1; 2010 nM and 2000 nM at hERG.
For the compound `CN(C)CCOc1c(Cl)cc(Nc2ccc(C(F)(F)F)cc2[N+](=O)[O-])cc1Cl` [Compound 18c, 3,5-Dichloro-4-(2-(dimethylamino)ethoxy)-N-(2-nitro-4-(trifluoromethyl)phenyl)aniline], the inhibition at 10 µM against KV10.1 (10 μM) came to 58.2%; on hERG it was 76.8%. Besides, the IC50 against KV10.1 came to 19000 ± 2850 nM; against hERG, 660 ± 270 nM.
In the case of `O=[N+]([O-])c1cc(C(F)(F)F)ccc1Nc1ccc(OCc2ccccc2)cc1` [Compound 14, N-(4-(Benzyloxy)phenyl)-2-nitro-4-(trifluoromethyl)aniline], the inhibition at 10 µM is -1.18% against KV10.1 (10 μM) and 4.23% against hERG.
Take `O=[N+]([O-])c1cc(C(F)(F)F)ccc1Nc1ccc(OCCN2CCCCCC2)cc1` [Compound 21, N-(4-(2-(Azepan-1-yl)ethoxy)phenyl)-2-nitro-4-(trifluoromethyl)aniline]: the figures for the inhibition at 10 µM against KV10.1 (10 μM) and against hERG were 43.4% and 77.5 ± 5.71%, respectively. Besides, the IC50 worked out at 13300 ± 1890 nM against KV10.1 and 1340 ± 320 nM at hERG.
In the case of `COC(=O)c1cc(C(F)(F)F)ccc1Nc1ccc(OCC(O)CN(C)C)cc1` (centres unmarked) [Compound 6c, Methyl 2-((4-(3-(dimethylamino)-2-hydroxypropoxy)phenyl)amino)-5-(trifluoromethyl)benzoate], the inhibition at 10 µM against KV10.1 (10 μM) turned out to be 9.91%; against hERG, 63.7%.
As to `CN(C)CCOc1c(Br)cc(Nc2ccc(C(F)(F)F)cc2[N+](=O)[O-])cc1Br` [Compound 18b, 3,5-Dibromo-4-(2-(dimethylamino)ethoxy)-N-(2-nitro-4-(trifluoromethyl)phenyl)aniline], the results for the inhibition at 10 µM against KV10.1 (10 μM) and against hERG were 26% and 66.8%, respectively.
For the compound `CN(C)CC(O)COc1ccc(NC(=O)c2ccc(C(F)(F)F)cc2[N+](=O)[O-])cc1` (centres unmarked) [Compound 6b, N-(4-(3-(Dimethylamino)-2-hydroxypropoxy)phenyl)-2-nitro-4-(trifluoromethyl)benzamide], the results for the inhibition at 10 µM against KV10.1 (10 μM) and at hERG were -0.41% and 9.83%, respectively.
Take `COC(=O)c1ccccc1Oc1ccc(OCC(O)CN2CCOCC2)cc1` (centres unmarked) [Compound 5a, Methyl 2-(4-(2-hydroxy-3-morpholinopropoxy)phenoxy)benzoate]: the values for the inhibition at 10 µM against KV10.1 (10 μM) and against hERG were -4.54% and 15%, respectively.
For `CN(C)CC(O)COc1ccc(Nc2ccc([N+](=O)[O-])cc2[N+](=O)[O-])cc1` (centres unmarked) [Compound 6d, 1-(Dimethylamino)-3-(4-((2,4-dinitrophenyl)amino)phenoxy)propan-2-ol], the inhibition at 10 µM at KV10.1 (10 μM) worked out at 44.1%; on hERG, 74.3%.
Turning to `O=C(O)c1ccccc1Nc1ccc(OCC(O)CN2CCOCC2)cc1` (centres unmarked) [Compound 10a, 2-((4-(2-Hydroxy-3-morpholinopropoxy)phenyl)amino)benzoic acid], the inhibition at 10 µM at KV10.1 (10 μM) was found to be 13%; against hERG, 3.42%.
The matching figures for `CN(C)CC(O)COc1ccc(Oc2ccc(C(F)(F)F)cc2[N+](=O)[O-])cc1` (centres unmarked) [Compound 6a, 1-(Dimethylamino)-3-(4-(2-nitro-4-(trifluoromethyl)phenoxy)phenoxy)propan-2-ol]: 23.7% and 69.1%.
For the compound `O=[N+]([O-])c1cc(C(F)(F)F)ccc1Nc1ccc(OCCN2CCCC2)cc1` [Compound 19, 2-Nitro-N-(4-(2-(pyrrolidin-1-yl)ethoxy)phenyl)-4-(trifluoromethyl)aniline], the inhibition at 10 µM is 55.7% against KV10.1 (10 μM) and 65.9% on hERG.
Regarding `O=[N+]([O-])c1cc(C(F)(F)F)ccc1Nc1ccc(OCCN2CCCCC2)cc1` [Compound 20, 2-Nitro-N-(4-(2-(piperidin-1-yl)ethoxy)phenyl)-4-(trifluoromethyl)aniline], the inhibition at 10 µM was found to be 36.3% at KV10.1 (10 μM) and 75.6% against hERG. Besides, the IC50 on KV10.1 came to 12930 ± 40 nM; at hERG it was 590 ± 10 nM.
In the case of `O=C(Nc1ccc(OCC(O)CN2CCOCC2)cc1)c1ccc(C(F)(F)F)cc1[N+](=O)[O-]` (centres unmarked) [Compound 5c, N-(4-(2-Hydroxy-3-morpholinopropoxy)phenyl)-2-nitro-4-(trifluoromethyl)benzamide], the results for the inhibition at 10 µM on KV10.1 (10 μM) and against hERG were -0.66% and 21.5%, respectively.
`O=[N+]([O-])c1cc(C(F)(F)F)ccc1Oc1ccc(OCC(O)CN2CCOCC2)cc1` (centres unmarked) [Compound 5b, 1-Morpholino-3-(4-(2-nitro-4-(trifluoromethyl)phenoxy)phenoxy)propan-2-ol]: the results for the inhibition at 10 µM against KV10.1 (10 μM) and on hERG were 24.9% and 11.5%, respectively.
As to `O=C(Cc1ccc(Cl)c(Cl)c1)NC1CCN(CC(O)COc2ccc(Nc3ccc(C(F)(F)F)cc3[N+](=O)[O-])cc2)CC1` (centres unmarked) [Compound 16d, 2-(3,4-Dichlorophenyl)-N-(1-(2-hydroxy-3-(4-((2-nitro-4-(trifluoromethyl)phenyl)amino)phenoxy)propyl)piperidin-4-yl)acetamide], the inhibition at 10 µM at KV10.1 (10 μM) stood at 0%.
